These are literature values, as cited in patent US5270047A, “Local delivery of dipyridamole for the treatment of proliferative diseases” (priority 1991, dated 1993).

The series relates to vascular restenosis. To be noted: current pharmacologic therapies after PTCA, atherectomy, laser angioplasty, bypass graft surgery; cited from earlier work.

As to low molecular weight heparin, the “effect for the treatment and prevention of vascular restenosis” value (shortened to “effect for the treatment and prevention”) is “ineffective for the treatment and prevention of vascular restenosis”. As to `CC(=O)Oc1ccccc1C(=O)O` [aspirin], the “effect for the treatment and prevention” value was “ineffective for the treatment and prevention of vascular restenosis”. Turning to `CCCCC[C@H](O)/C=C/[C@@H]1[C@H]2C/C(=C/CCCC(=O)O)O[C@H]2C[C@H]1O` [prostacyclin], the “effect for the treatment and prevention” value is “ineffective for the treatment and prevention of vascular restenosis”.

With heparin, the “effect for the treatment and prevention” value was “ineffective for the treatment and prevention of vascular restenosis”. As to `O=c1ccc2ccccc2o1` [coumarin], the “effect for the treatment and prevention” value is “ineffective for the treatment and prevention of vascular restenosis”.
